Assay results: US6903126B2, “1-Aryl-2-N-, S- or O-substituted benzimidazole derivatives, their use for the production of pharmaceutical agents as well as pharmaceutical preparations that contain these derivatives” (Schering AG, priority 2001, dated 2005)

System: primary rat microglia
Assay: Inhibition of microglia activation (Aβ-peptide stimulation, MTS reduction)
Type: cell-based
Conditions: Aβ-peptide-activated primary rat microglia, compound added day 5, MTS reduction on day 7, relative to DMSO control
Description: For in vitro production of Aβ-activated microglia, primary rat microglia with synthetic Aβ-peptide are incubated:
For simulation of Aβ deposits, synthetic Aβ peptide is dried on 96-hole tissue culture plates. A peptide stock solution is diluted by 2 mg/ml of H2O 1:50 in H2O. To coat the 96-hole plates, 30 μl of this dilute peptide solution/hole is used, and it is dried overnight at room temperature.
Primary rat microglia are harvested by mixed glia cultures, which were obtained from P3 rat brains. In the production of mixed glia cultures, the brains are taken from 3-day-old rats, and meninges are removed. The isolation of cells is achieved by trypsinization (0.25% trypsin solution, 15 minutes, 37° C.)). After undigested tissue fragments are separated with the aid of a 40 μm nylon mesh, the isolated cells are centrifuged off (800 rpm/10 minutes). The cell pellet is resuspended in the culture medium and moved into 100 ml tissue culture flasks (1 brain/tissue culture flask). […]
To quantify the microglia reactivity, the metabolic activity is measured on cultivation day 7 via the reduction of MTS (3-(4,5-dimethylthiazol-2-yl)-5-(3-carboxymethoxyphenyl)-2-(sulfophenyl)-2H-tetrazolium), Owen's reagent, Baltrop, J. A. et al. Bioorg. & Med. Chem. Lett., 1, 6111 (1991)). […]

COC(=O)CCCCCOc1ccc2nc(S(=O)(=O)Cc3ccccc3)n(-c3ccc(C)cc3)c2c1 [Example 9, 6-[[1-(4-Methylphenyl)-2-(phenylmethanesulfonyl)-1H-benzimidazol-6-yl]oxy]hexanoic acid methyl ester]
IC50: 460 nM

COC(=O)CCCCCOc1ccc2nc(N3CCOCC3)n(-c3ccccc3)c2c1 [Example 15, 6-[[2-(Morpholin-4-yl)-1-phenyl-1H-benzimidazol-6-yl]oxy]hexanoic acid methyl ester]
IC50: 870 nM
